Results on 18 compounds are retold here after patent US7803788B2, “Prodrugs of phosphonate nucoleotide analogues” (Gilead Sciences, Inc., priority 2000, dated 2010).

Where two headings read alike, the source gives them in different places.

One data set deals with HIV-1. Briefly: In vitro anti-HIV-1 activity in MT-2 cells. The data set is classed as cell-based.
Another data set relates to MT-2 cells. Briefly: Cytotoxicity in MT-2 cells. Conditions: Table 4.
Data set [1] can be described thus: Excretion and tissue distribution of radiolabelled GS-7340 in dogs. As to conditions: for % Dose / Conc.: dogs, oral 10 mg-eq. PMPA/kg. As to the method:
Plasma and peripheral blood mononuclear cells (PBMCs) were obtained over the 24-hr period. Urine and feces were cage collected over 24 hr. At 24 h after the dose, the animals were sacrificed and tissues removed for analysis. Total radioactivity in tissues was determined by oxidation and liquid scintillation counting.

The nature of data set [2]: Stability / hydrolysis in MT-2 cell extract. The data set is classed as in vitro ADME. Conditions: 37° C., HEPES buffer pH 7.4. How it is done:
(§1) The in vitro metabolism and stability of separated diastereomers were determined in PLCE, MT-2 extract and human plasma. A biological sample listed below, 80 μL, was transferred into a screw-capped centrifuge tube and incubated at 37° C. for 5 min. A solution containing 0.2 mg/mL of the test compound in a suitable buffer, 20 μL, was added to the biological sample and mixed. The reaction mixture, 20 μL, was immediately sampled and mixed with 60 μL of methanol containing 0.015 mg/mL of 2-hydroxymethylnaphthalene as an internal standard for HPLC analysis. The sample was taken as the time-zero sample. Then, at specific time points, the reaction mixture, 20 μL, was sampled and mixed with 60 μl of methanol containing the internal standard. The mixture thus obtained was centrifuged at 15,000 G for 5 min and the supernatant was analyzed with HPLC under the conditions described below.
(§2) The biological samples evaluated are as follows, • (1) PLCE (porcine liver carboxyesterase from Sigma, 160 u/mg protein, 21 mg protein/mL) diluted 20 fold with PBS (phosphated-buffered saline). • (2) MT-2 cell extract was prepared from MT-2 cells according to the published procedure [A. Pompon, I. Lefebvre, J.-L. Imbach, S. Kahn, and D. Farquhar, “Antiviral Chemistry & Chemotherapy”, 5:91-98 (1994)] except for using HEPES buffer described below as the medium. • (3) Human plasma (pooled normal human plasma from George King Biomedical Systems, Inc.)
In the study for MT-2 cell extracts, the test compound was dissolved in HEPES buffer. HEPES buffer contains 0.010 M HEPES, 0.05 M potassium chloride, 0.005 M magnesium chloride, and 0.005 M dl-dithiothreitol. pH 7.4 at 37° C.
(§3) The HPLC analysis was carried out under the following conditions.

Data set [3] can be described thus: Stability in human plasma. Format: in vitro ADME. As to conditions: 37° C., TBS pH 7.5. How it is done: as §1, §2
In the study for human plasma, the test compound was dissolved in TBS. TBS (tris-buffered saline, Sigma) contains 0.05 M Tris, 0.0027 M potassium chloride, and 0.138 M sodium chloride. pH 7.5 at 37° C.
as §3

Where [4] appears, read: Table 4, activity of isomer A over isomer B.
Setting [5] is: Table 5 (selected IC50 data from Table 4), read-out: HIV IC50.

What is called CC50 is the concentration giving 50% cytotoxicity. A lower CC50 goes with harm at low concentration. In general, IC50 refers to the point on the concentration scale where inhibition reaches its midpoint.

Turning to `CCOC(=O)C(C)NP(=O)(COC(C)Cn1cnc2c(N)ncnc21)Oc1ccccc1` (mixture of isomers) [Ala-ethyl, Phenyl PMPA, Ethyl L-Alanyl Amidate], in the data set with HIV-1 (Table 4, IC50 relative to PMPA), the Fold change came out at 250x. The same compound had an A/B activity with HIV-1 (setting [4]) of 10x. This compound yielded a CC50 in the data set with MT-2 cells of 60000 nM.

In the data set on HIV-1 (Table 4, IC50 relative to PMPA), `COC(=O)C(C)NP(=O)(COC(C)Cn1cnc2c(N)ncnc21)Oc1ccccc1` (mixture of isomers) [Ala-methylester] came in with a Fold change of 200x. The compound also gave an A/B activity in the data set with HIV-1 (setting [4]) of 20x. Further, the CC50 in the data set on MT-2 cells came out at 80000 nM.

Turning to `CCOC(=O)CNP(=O)(COC(C)Cn1cnc2c(N)ncnc21)Oc1ccccc1` (mixture of isomers) [Gly-ethylester], in the data set on HIV-1, the A/B activity came out at 20x and the Fold change turned out to be 10x. For the same compound, in the data set on HIV-1 (read-out: IC50), the IC50 was 500 nM.

In the data set on HIV-1 (Table 4, IC50 relative to PMPA), `COC(=O)C(C)NP(=O)(COC(C)Cn1cnc2c(N)ncnc21)Oc1ccccc1` (single isomer, unassigned) [GS-6957a] displayed a Fold change of 670x.

Turning to `COC(=O)C(C)NP(=O)(COC(C)Cn1cnc2c(N)ncnc21)Oc1ccccc1` (single isomer, unassigned) [GS-6957b], in the data set on HIV-1 (Table 4, IC50 relative to PMPA), the Fold change is reported as 33x.

Turning to `COC(=O)C(Cc1ccccc1)NP(=O)(COC(C)Cn1cnc2c(N)ncnc21)Oc1ccccc1` (single isomer, unassigned) [GS-7003a], the Fold change with HIV-1 is listed as 500x.

In turn, `COC(=O)C(Cc1ccccc1)NP(=O)(COC(C)Cn1cnc2c(N)ncnc21)Oc1ccccc1` (single isomer, unassigned) [GS-7003b] registered a Fold change in the data set on HIV-1 of 50x.

`CCOC(=O)CNP(=O)(COC(C)Cn1cnc2c(N)ncnc21)Oc1ccccc1` (single isomer, unassigned) [GS-7335]: the Fold change with HIV-1 was determined as 5x.

On to `CC(C)OC(=O)C(C)NP(=O)(COC(C)Cn1cnc2c(N)ncnc21)Oc1ccccc1` (single isomer, unassigned) [compound 4], for which the IC50 with HIV-1 (setting [5]) was 60 nM.

In the data set on HIV-1, `CCOC(=O)[C@H](CC)NP(=O)(CO[C@H](C)Cn1cnc2c(N)ncnc21)Oc1ccccc1` (stereo partly drawn) [ABA-ethyl] yielded an A/B activity of 7.5x and a Fold change of 625x. The same compound gave a 50% cytotoxic concentration (CC50) in the data set with MT-2 cells above 100000 nM.

In the data set on HIV-1, `CCOC(=O)CNP(=O)(CO[C@H](C)Cn1cnc2c(N)ncnc21)Oc1ccccc1` (stereo partly drawn) [GS-7119] yielded a Fold change of 100x. In the data set with MT-2 cells, this compound yielded a cytotoxic concentration (CC50) above 100000 nM.

Regarding `CC(C)OC(=O)[C@H](C)N[P@](=O)(CO[C@H](C)Cn1cnc2c(N)ncnc21)Oc1ccccc1` [GS-7339], in the data set on HIV-1 (Table 4, effect of diastereomer, read-out: IC50), the IC50 was found to be 60 nM. This compound also gave a CC50 with MT-2 cells above 100000 nM.

`CCOC(=O)C(CC)NP(=O)(COC(C)Cn1cnc2c(N)ncnc21)Oc1ccccc1` (stereo not drawn) [GS-7342]: in the data set on HIV-1, the Fold change is on record as 1,250x.

Turning to `C[C@H](Cn1cnc2c(N)ncnc21)OCP(=O)(O)O` [PMPA, (R)-9-[2-(phosphonomethoxy)propyl]adenine, reference compound], in the data set on HIV-1, the Fold change turned out to be 1x.

In the case of `COC(=O)[C@H](Cc1ccccc1)NP(=O)(CO[C@H](C)Cn1cnc2c(N)ncnc21)Oc1ccccc1` (stereo partly drawn) [Phe-methylester], in the data set with HIV-1, the A/B activity worked out at 10x and the Fold change was found to be 170x.

Turning to `CC(C)OC(=O)OCOP(=O)(CO[C@H](C)Cn1cnc2c(N)ncnc21)OCOC(=O)OC(C)C.O=C(O)/C=C/C(=O)O` [TDF, tenofovir disoproxil fumarate], the “% Dose” value in data set [1] (Abdominal fat), in data set [1] (Adrenal Gland), in data set [1] (Axillary Lymph Nodes), in data set [1] (Bile), in data set [1] (Bone Marrow) and in data set [1] (Brain) was 0.00% throughout. Besides, the “% Dose” value is 0.00% in data set [1] (Cerebrospinal Fluid); 0.49% in data set [1] (Duodenum); 0.00% in data set [1] (Eye (L + R)); 0.00% in data set [1] (Femoral Bone); 0.00% in data set [1] (Gall bladder); 0.03% in data set [1] (Heart). Besides, the “% Dose” value in data set [1] (Ileum) was 0.01%; in data set [1] (Iliac Lymph Nodes), 0.00%; in data set [1] (Inguinal Lymph Nodes) it was 0.00%; in data set [1] (Lungs), 0.03%; in data set [1] (Mesenteric Lymph Nodes) it was 0.00%; in data set [1] (Pancreas), 0.00%. The “% Dose” value in data set [1] (Pituitary Gland), in data set [1] (Prostate), in data set [1] (Salivary Gland (L + R)), in data set [1] (Skeletal Muscle), in data set [1] (Skin) and in data set [1] (Spinal Cord) was 0.00% in each case. Also, the “% Dose” value came out at 0.00% in data set [1] (Spleen); 0.11% in data set [1] (Stomach); 0.02% in data set [1] (Testes (L + R)); 0.00% in data set [1] (Thyroid Gland); 0.00% in data set [1] (Whole Blood). The Conc. in data set [1] (Abdominal fat) is recorded as 0.16 ug-eq/g; in data set [1] (Adrenal Gland), 1.90 ug-eq/g; in data set [1] (Axillary Lymph Nodes), 0.37 ug-eq/g; in data set [1] (Bone Marrow), 0.20 ug-eq/g; in data set [1] (Brain), “<LOD”; in data set [1] (Cerebrospinal Fluid) it was “<LOD”. The Conc. worked out at 0.06 ug-eq/g in data set [1] (Eye (L + R)); 0.08 ug-eq/g in data set [1] (Femoral Bone); 0.46 ug-eq/g in data set [1] (Heart); 0.50 ug-eq/g in data set [1] (Ileum); 0.51 ug-eq/g in data set [1] (Iliac Lymph Nodes); 0.28 ug-eq/g in data set [1] (Inguinal Lymph Nodes). For the same compound, the Conc. in data set [1] (Lungs) is recorded as 0.53 ug-eq/g; in data set [1] (Mesenteric Lymph Nodes), 1.20 ug-eq/g; in data set [1] (Pancreas) it was 0.57 ug-eq/g; in data set [1] (Pituitary Gland) it was 0.23 ug-eq/g; in data set [1] (Prostate), 0.23 ug-eq/g; in data set [1] (Salivary Gland (L + R)), 0.45 ug-eq/g. The Conc. in data set [1] (Skeletal Muscle) is listed as 0.11 ug-eq/g; in data set [1] (Skin), 0.13 ug-eq/g; in data set [1] (Spinal Cord), “<LOD”; in data set [1] (Spleen), 0.63 ug-eq/g; in data set [1] (Thyroid Gland) it was 0.30 ug-eq/g; in data set [1] (Whole Blood), 0.85 ug-eq/g. Besides, in data set [1] (dog, in vivo), the “prodrug concentration in the plasma” value is listed as “below the level of assay detection”.

As to `CC(C)OC(=O)[C@H](C)N[P@](=O)(CO[C@H](C)Cn1cnc2c(N)ncnc21)Oc1ccccc1` [compound 3], in the data set on HIV-1 (setting [5]), the concentration for half-maximal inhibition (IC50) amounted to 5 nM. Moreover, the “MT-2 extract hydrolysis product” value in data set [2] was “Met. X & PMPA”. Besides, the “Human Plasma Stability (HP) t1/2” value in data set [3] came to 90.0 min.

Consider `CC(C)OC(=O)OCOP(=O)(CO[C@H](C)Cn1cnc2c(N)ncnc21)OCOC(=O)OC(C)C` [compound 7], for which the “Human Plasma Stability (HP) t1/2” value in data set [3] turned out to be 0.41 min.
